Experimental data: patent publication US20120232070A1, “Use of Indole Derivatives as Nurr-1 Activators for the Application Thereof as a Medicament for the Treatment of Parkinson's Disease” (Laboratoires Fournier SA, priority 2009, published 2012)

Assays:
[1] = target: hNurr1_RXRγFL (NURR1/RXRγ heterodimer) (Homo sapiens, UniProt P43354+P48443); assay: Transactivation assay in Cos-7 cells, NURR-1-Gal4 / RXRγ, luciferase reporter; assay type: cell-based; details: for Emax: COS-7, read-out: hNurr1_RXRγFL Eff (%), efficacy in % relative to the reference XCT0135908 at 2·10^−5 M (=100%); for EC50: Cos-7 cells, overnight incubation; for hNurr1_RXRγFL Eff (%): efficacy in % relative to the reference XCT0135908 at 2·10^−5 M (=100%)
Experimental: (§1) First, the capacity of the compounds according to the invention for acting as an activator of the heterodimers formed by the NURR-1 nuclear receptor and the RXR nuclear receptors was measured by an in vitro assay.
(§2) A transactivation assay was used as a primary screening assay. Cos-7 cells were co-transfected with a plasmid expressing a chimera of the human receptor NURR-1-Gal4, a plasmid expressing the human receptor RXR (RXRα or RXRγ receptor) and a reporter plasmid 5Gal4pGL3-TK-Luc. The transfections were performed by means of a chemical agent (Jet PEI).
(§3) The transfected cells were distributed in 384-well plates and left resting for 24 hours.
(§4) After 24 hours, the culture medium was changed. The products according to the invention were added (final concentration between 10^−4 and 3·10^−10 M) to the culture medium. After overnight incubation, luciferase expression was measured after addition of “SteadyGlo” according to the manufacturer's instructions (Promega).
(§5) 4-[[6-Methyl-2-phenyl-5-(2-prop enyl)-4-pyrimidinyl]amino]-benzoic acid (called XCT0135908, which was described in the article by Wallen-Mackenzie et al. published in Genes & Development 17, pages 3036-3047) at 2·10^−5 M (RXR agonist) was used as reference.
(§6) The levels of induction (designated by “efficiency”) were calculated relative to the baseline activity of each heterodimer. The results were expressed as a percentage of the level of induction relative to the level of induction obtained with the reference (the level of induction of the reference is arbitrarily taken to be 100%).

[2] = target: hNurr1_RXRαFL (NURR1/RXRα heterodimer) (Homo sapiens, UniProt P19793+P43354); assay: Transactivation assay in Cos-7 cells, NURR-1-Gal4 / RXRα, luciferase reporter; assay type: cell-based; details: for Emax: COS-7, read-out: hNurr1_RXRαFL Eff (%), efficacy in % relative to the reference XCT0135908 at 2·10^−5 M (=100%); for EC50: Cos-7 cells, overnight incubation; for hNurr1_RXRαFL Eff (%): efficacy in % relative to the reference XCT0135908 at 2·10^−5 M (=100%)
Experimental: as §1, §2, §3, §4, §5, §6

Sequence of hNurr1_RXRγFL (NURR1/RXRγ heterodimer) (P43354 328-598): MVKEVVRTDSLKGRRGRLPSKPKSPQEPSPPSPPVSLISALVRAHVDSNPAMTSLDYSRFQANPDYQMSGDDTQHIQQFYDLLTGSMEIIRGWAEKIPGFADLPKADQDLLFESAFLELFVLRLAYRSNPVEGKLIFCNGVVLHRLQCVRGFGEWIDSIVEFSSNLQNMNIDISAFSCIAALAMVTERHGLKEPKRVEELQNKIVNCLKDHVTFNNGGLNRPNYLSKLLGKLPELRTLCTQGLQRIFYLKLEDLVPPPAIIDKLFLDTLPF
Sequence of hNurr1_RXRγFL (NURR1/RXRγ heterodimer) (P48443 whole entry, the tested form may be a part): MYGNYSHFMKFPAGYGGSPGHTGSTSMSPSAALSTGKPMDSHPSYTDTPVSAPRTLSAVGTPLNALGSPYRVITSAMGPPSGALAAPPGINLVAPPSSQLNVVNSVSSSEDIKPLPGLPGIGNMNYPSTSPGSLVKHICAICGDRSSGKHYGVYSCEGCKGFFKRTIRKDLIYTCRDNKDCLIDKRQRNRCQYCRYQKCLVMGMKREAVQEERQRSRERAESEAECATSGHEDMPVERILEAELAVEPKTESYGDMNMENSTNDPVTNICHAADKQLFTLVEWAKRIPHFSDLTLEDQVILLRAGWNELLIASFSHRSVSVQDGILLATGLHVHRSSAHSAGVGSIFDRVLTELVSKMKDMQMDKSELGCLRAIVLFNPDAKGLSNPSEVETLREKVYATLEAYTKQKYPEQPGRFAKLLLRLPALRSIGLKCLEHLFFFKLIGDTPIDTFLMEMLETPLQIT
Sequence of hNurr1_RXRαFL (NURR1/RXRα heterodimer) (P19793 whole entry, the tested form may be a part): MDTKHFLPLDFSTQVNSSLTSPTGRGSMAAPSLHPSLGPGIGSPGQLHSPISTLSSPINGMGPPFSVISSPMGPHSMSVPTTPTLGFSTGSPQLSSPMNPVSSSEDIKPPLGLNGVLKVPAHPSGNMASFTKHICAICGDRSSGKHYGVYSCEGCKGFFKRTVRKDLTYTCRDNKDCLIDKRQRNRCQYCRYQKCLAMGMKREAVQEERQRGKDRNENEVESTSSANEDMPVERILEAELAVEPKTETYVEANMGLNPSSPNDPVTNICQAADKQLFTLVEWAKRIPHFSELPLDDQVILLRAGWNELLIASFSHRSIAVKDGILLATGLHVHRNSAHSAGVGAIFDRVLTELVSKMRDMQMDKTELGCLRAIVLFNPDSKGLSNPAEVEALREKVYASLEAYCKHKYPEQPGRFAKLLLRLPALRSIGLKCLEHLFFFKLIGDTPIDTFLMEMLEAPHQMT
Sequence of hNurr1_RXRαFL (NURR1/RXRα heterodimer) (P43354 328-598): as the sequence (P43354 328-598) above

Structure (SMILES)	Emax [1]	EC50 [1]	Emax [2]	EC50 [2]	hNurr1_RXRγFL Eff (%) [1]	hNurr1_RXRαFL Eff (%) [2]
O=C(O)c1ccc(Cc2cc3cc(Cl)ccc3n2S(=O)(=O)c2ccc3c(c2)OCCO3)s1 [Example 77, 5-[[5-chloro-1-[(2,3-dihydro-benzo[1,4]dioxin-6-yl)sulfonyl]-1H-indol-2-yl]methyl]-thiophene-2-carboxylic acid]	38%	457 nM	74%	224 nM		
Cc1c(Cc2nc(C(=O)O)cs2)n(S(=O)(=O)c2cccc(C(C)(C)C)c2)c2ccc(C(F)(F)F)cc12 [Example 86, 2-[[1-[[3-(1,1-dimethylethyl)-phenyl]sulfonyl]-3-methyl-5-(trifluoro-methyl)-1H-indol-2-yl]methyl]-thiazole-4-carboxylic acid]	34%	1480 nM	56%	490 nM		
CC(C)(C)c1cccc(S(=O)(=O)n2c(Cc3nc(C(=O)O)cs3)cc3cc(C(F)(F)F)ccc32)c1 [Example 89, 2-[[1-[[3-(1,1-dimethylethyl)-phenyl]sulfonyl]-5-trifluoromethyl-1H-indol-2-yl]methyl]-thiazole-4-carboxylic acid]	62%	611 nM	77%	265 nM		
COc1cc(Cc2cc3cc(Cl)ccc3n2S(=O)(=O)c2ccc(C(C)C)cc2)ccc1C(=O)O [Example 98, 4-[[5-chloro-1-[[4-(1-methylethyl)phenyl]sulfonyl]-1H-indol-2-yl]methyl]-2-methoxybenzoic acid]	8%	> 10000 nM	64%	2120 nM		
CC(C)c1ccc(S(=O)(=O)n2c(Cc3ccc(C(=O)O)c(O)c3)cc3cc(Cl)ccc32)cc1 [Example 99, 4-[[5-chloro-1-[[4-(1-methylethyl)phenyl]sulfonyl]-1H-indol-2-yl]methyl]-2-hydroxybenzoic acid]	42%	989 nM	50%	569 nM		
C=C(c1ccc(C(=O)O)cc1)c1cc2cc(Cl)ccc2n1S(=O)(=O)c1ccc(C(C)C)cc1 [Example 102, 4-[1-[1[[4-(1-methylethyl)phenyl]sulfonyl]-5-(chloro)-1H-indol-2-yl]-1-ethenyl]-benzoic acid]	27%	676 nM	49%	363 nM		
COC(=O)c1ccc(Cc2cc3cc(C(C)(C)C)ccc3n2S(=O)(=O)c2cccc(C(C)(C)C)c2)cc1 [Example 108, 4-[[1-[[3-(1,1-dimethylethyl)phenyl]sulfonyl]-5-(tert-butyl)-1H-indol-2-yl]methyl]benzoic acid, methyl ester]	77%	646 nM	110%	157 nM		
COC(=O)c1ccc(Cc2cc3cc(C(F)(F)F)c(F)cc3n2S(=O)(=O)c2cccc(C(C)(C)C)c2)cc1 [Example 110, 4-[[1-[[3-(1,1-dimethylethyl)phenyl]sulfonyl]-5-(trifluoro)-6-fluoro-1H-indol-2-yl]methyl]benzoic acid, methyl ester]	95%	63 nM	92%	15 nM		
COC(=O)c1ccc(Cc2cc3cccc(F)c3n2S(=O)(=O)c2cccc(C(C)(C)C)c2)cc1 [Example 113, 4-[[1-[[3-(1,1-dimethylethyl)phenyl]sulfonyl]-7-fluoro-1H-indol-2-yl]methyl]benzoic acid, methyl ester]	97%	1860 nM	103%	> 10000 nM		
CC(C)c1cccc(S(=O)(=O)n2c(Cc3ccc(C(=O)O)cc3)cc3cc(C(F)(F)F)ccc32)c1 [Example 114, 4-[[1-[[3-(1-methylethyl)phenyl]sulfonyl]-5-(trifluoromethyl)-1H-indol-2-yl]methyl]benzoic acid]		145 nM		63 nM	76%	109%
CC(C)c1cccc(S(=O)(=O)n2c(Cc3ccc(C(=O)O)cc3)cc3cc(N4CCCC4)ccc32)c1 [Example 116, 4-[[1-[[3-(1-methylethyl)phenyl]sulfonyl]-5-(pyrrolidin)-1H-indol-2-yl]methyl]benzoic acid]		1440 nM		871 nM	50%	74%
CC(C)(C)c1cccc(S(=O)(=O)n2c(Cc3ccc(C(=O)O)cc3)cc3cc(C(F)(F)F)c(F)cc32)c1 [Example 117, 4-[[1-[[3-(1,1-dimethylethyl)phenyl]sulfonyl]-5-(trifluoro)-6-fluoro-1H-indol-2-yl]methyl]benzoic acid]	73%	91 nM	84%	39 nM		
Cc1ccc2c(c1)cc(Cc1ccc(C(=O)O)cc1)n2S(=O)(=O)c1cccc(C(C)(C)C)c1 [Example 118, 4-[[1-[[3-(1,1-dimethylethyl)phenyl]sulfonyl]-5-(methyl)-1H-indol-2-yl]methyl]benzoic acid]	65%	473 nM	75%	279 nM		
CC(C)(C)c1cccc(S(=O)(=O)n2c(Cc3ccc(C(=O)O)cc3)cc3c(Cl)c(Cl)ccc32)c1 [Example 119, 4-[[1-[[3-(1,1-dimethylethyl)phenyl]sulfonyl]-4-(chloro)-5-(chloro)-1H-indol-2-yl]methyl]benzoic acid]	82%	266 nM	71%	65 nM		
COc1ccc(S(=O)(=O)n2c(Cc3ccc(C(=O)O)cc3)cc3cc(C(F)(F)F)ccc32)cn1 [Example 120, 4-[[1-[(6-methoxy-3-pyridinyl)sulfonyl]-5-(trifluoromethyl)-1H-indol-2-yl]methyl]benzoic acid]	49%	661 nM	68%	202 nM		
Cc1cc(S(=O)(=O)n2c(Cc3ccc(C(=O)O)cc3)cc3cc(C(F)(F)F)ccc32)ccc1Cl [Example 121, 4-[[1-[4-chloro-3-methyl-phenylsulfonyl]-5-(trifluoromethyl)-1H-indol-2-yl]methyl]benzoic acid]	56%	433 nM	65%	192 nM		
O=C(O)c1ccc(Cc2cc3cc(C(F)(F)F)ccc3n2S(=O)(=O)c2cc3ccccc3o2)cc1 [Example 122, 4-[[1-[benzofuran-2-sulfonyl]-5-(trifluoromethyl)-1H-indol-2-yl]methyl]benzoic acid]	54%	680 nM	62%	353 nM		
CCCOc1ccc(S(=O)(=O)n2c(Cc3ccc(C(=O)O)cc3)cc3cc(C(F)(F)F)ccc32)cc1 [Example 123, 4-[[1-[4-propoxy-phenylsulfonyl]-5-(trifluoromethyl)-1H-indol-2-yl]methyl]benzoic acid]	36%	646 nM	60%	217 nM		
O=C(O)c1ccc(Cc2cc3cc(C(F)(F)F)ccc3n2S(=O)(=O)c2ccc(OC(F)F)c(Cl)c2)cc1 [Example 124, 4-[[1-[3-chloro-4-difluoromethoxy-phenylsulfonyl]-5-(trifluoromethyl)-1H-indol-2-yl]methyl]benzoic acid]	44%	697 nM	59%	349 nM		
CN1C(=O)COc2ccc(S(=O)(=O)n3c(Cc4ccc(C(=O)O)cc4)cc4cc(C(F)(F)F)ccc43)cc21 [Example 125, 4-[[1-[4-methyl-3-oxo-3,4-dihydro-2H-benzo[1,4]oxazine-6-sulfonyl]-5-(trifluoromethyl)-1H-indol-2-yl]methyl]benzoic acid]	101%	724 nM	61%	808 nM		
O=C(O)c1ccc(Cc2cc3cc(C(F)(F)F)ccc3n2S(=O)(=O)c2cccc(SC(F)F)c2)cc1 [Example 126, 4-[[1-[3-difluoromethylsulfanyl-phenylsulfonyl]-5-(trifluoromethyl)-1H-indol-2-yl]methyl]benzoic acid]	32%	141 nM	44%	122 nM		
CC(C)COc1ccc(S(=O)(=O)n2c(Cc3ccc(C(=O)O)cc3)cc3cc(C(F)(F)F)ccc32)cc1 [Example 127, 4-[[1-[4-isobutoxy-phenylsulfonyl]-5-(trifluoromethyl)-1H-indol-2-yl]methyl]benzoic acid]	45%	575 nM	48%	263 nM		
CC(C)CCc1ccc(S(=O)(=O)n2c(Cc3ccc(C(=O)O)cc3)cc3cc(C(F)(F)F)ccc32)cc1 [Example 128, 4-[[1-[4-(3-methyl-butyl)-phenylsulfonyl]-5-(trifluoromethyl)-1H-indol-2-yl]methyl]benzoic acid]	36%	1590 nM	44%	337 nM		
